Results on 24 molecules are retold here after US8048879B2, “Substituted 4,5,6,7-tetrahydro-isoxazolo[4,5-c]pyridine compounds and use thereof for producing medicaments” (Gruenenthal GmbH, priority 2005, dated 2011).

T2 sequence (Q9WTR4 1-597): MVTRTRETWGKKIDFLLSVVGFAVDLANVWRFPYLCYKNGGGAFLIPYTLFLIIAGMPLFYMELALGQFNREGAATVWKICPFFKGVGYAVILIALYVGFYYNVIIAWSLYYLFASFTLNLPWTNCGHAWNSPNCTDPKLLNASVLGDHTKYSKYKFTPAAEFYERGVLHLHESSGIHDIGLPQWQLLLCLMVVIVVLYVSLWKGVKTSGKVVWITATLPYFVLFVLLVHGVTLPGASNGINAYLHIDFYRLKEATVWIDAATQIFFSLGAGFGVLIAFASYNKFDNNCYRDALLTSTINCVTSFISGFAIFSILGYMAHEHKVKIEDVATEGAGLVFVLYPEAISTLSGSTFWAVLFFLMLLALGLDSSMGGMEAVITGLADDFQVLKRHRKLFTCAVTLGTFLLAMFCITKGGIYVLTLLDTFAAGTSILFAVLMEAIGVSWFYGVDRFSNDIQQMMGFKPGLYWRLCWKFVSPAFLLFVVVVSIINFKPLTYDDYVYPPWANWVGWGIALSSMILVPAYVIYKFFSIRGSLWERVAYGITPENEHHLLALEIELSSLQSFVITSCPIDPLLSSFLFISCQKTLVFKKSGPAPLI

In the first assay the target is T1, 5-HT transporter (Rattus norvegicus, UniProt P31652).
T1 construct: from tissue; host or cells: rat brain (medulla and pons), synaptosomes, P2 fraction
T1 sequence (P31652 whole entry): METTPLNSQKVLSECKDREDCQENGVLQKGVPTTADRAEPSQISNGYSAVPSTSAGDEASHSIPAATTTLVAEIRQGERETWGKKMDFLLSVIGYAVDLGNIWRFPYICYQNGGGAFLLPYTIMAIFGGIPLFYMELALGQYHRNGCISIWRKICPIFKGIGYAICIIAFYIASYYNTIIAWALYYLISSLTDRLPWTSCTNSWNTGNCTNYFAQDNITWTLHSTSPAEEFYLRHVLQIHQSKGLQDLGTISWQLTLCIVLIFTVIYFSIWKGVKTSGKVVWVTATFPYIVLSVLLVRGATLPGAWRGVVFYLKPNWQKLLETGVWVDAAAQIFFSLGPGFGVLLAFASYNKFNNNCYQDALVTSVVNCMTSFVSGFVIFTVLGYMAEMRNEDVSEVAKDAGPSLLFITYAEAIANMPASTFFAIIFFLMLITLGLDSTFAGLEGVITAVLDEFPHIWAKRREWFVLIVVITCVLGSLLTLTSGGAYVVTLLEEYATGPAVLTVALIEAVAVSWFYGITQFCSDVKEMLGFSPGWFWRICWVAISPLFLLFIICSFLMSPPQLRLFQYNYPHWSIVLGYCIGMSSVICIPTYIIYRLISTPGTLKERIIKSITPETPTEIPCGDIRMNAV
As to the kind of experiment: 5-HT uptake inhibition, synaptosomes from rat brain (medulla and pons). It is filed as biochemical. Summed up: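 Freshly isolated rat brain synaptosomes (P2 fraction): hypothalamus for NA uptake, medulla/pons for 5-HT uptake. Uptake of [3H]-NA (7.5 min) or [3H]-5-HT (5 min) at room temperature under O2, stopped by filtration over GF/B. Retained radioactivity counted by scintillation.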
Take `Cc1ccc(NC(=O)N2CCc3onc(C(=O)NCc4cccs4)c3C2)cc1[N+](=O)[O-]` [Example 9, 6,7-dihydro-4H-isoxazolo[4,5-c]pyridine-3,5-dicarboxylic acid 5-[(4-methyl-3-nitro-phenyl) amide] 3-[(thiophen-2-ylmethyl) amide]]: the “5-HT uptake (rat), 10 μM, % inhibition” value was 45%.
In the case of `Cc1nn(-c2ccccc2)nc1C(=O)N1CCc2onc(C(=O)NCc3ccc(F)cc3)c2C1` [Example 72, 5-(5-methyl-2-phenyl-2H-[1,2,3]triazole-4-carbonyl)-4,5,6,7-tetrahydro-isoxazolo[4,5-c]pyridine-3-carboxylic acid 4-fluorobenzyl amide], the inhibition at 10 µM was found to be 70%.
On the same count and under the same terms, the same measure for `O=C(NCCN1CCCC1)c1noc2c1CN(C(=O)COCc1ccccc1)CC2` [Example 64, 5-(2-benzyloxy-acetyl)-4,5,6,7-tetrahydro-isoxazolo[4,5-c]pyridine-3-carboxylic acid (2-pyrrolidin-1-yl-ethyl) amide]: 77%; for `O=C(NCc1cccc(Cl)c1Cl)c1noc2c1CN(S(=O)(=O)c1ccc(OC(F)(F)F)cc1)CC2` [Example 75, 5-(4-trifluoromethoxy-benzenesulfonyl)-4,5,6,7-tetrahydro-isoxazolo[4,5-c]pyridine-3-carboxylic acid 2,3-dichloro-benzyl amide]: 65%; for `Cc1ccc(S(=O)(=O)N2CCc3onc(C(=O)N4CCN(CCC5CCCCC5)CC4)c3C2)cc1` [Example 82, [4-(2-cyclohexyl-ethyl)-piperazin-1-yl]-[5-(toluene-4-sulfonyl)-4,5,6,7-tetrahydro-isoxazolo[4,5-c]pyridin-3-yl]-methanone]: 62%.
Same read-out and setting: the same measure for `CN(C)CCNC(=O)c1noc2c1CN(C(=O)c1cc(C(C)(C)C)nn1C)CC2` [Example 41, 5-(5-tert-butyl-2-methyl-2H-pyrazole-3-carbonyl)-4,5,6,7-tetrahydro-isoxazolo[4,5-c]pyridine-3-carboxylic acid (2-dimethylamino-ethyl) amide]: 76%; for `Cc1ccc(N2CCN(C(=O)c3noc4c3CN(S(=O)(=O)c3cc(Cl)ccc3Cl)CC4)CC2)c(C)c1` [Example 65, [5-(2,5-dichloro-benzenesulfonyl)-4,5,6,7-tetrahydro-isoxazolo[4,5-c]pyridin-3-yl]-[4-(2,4-dimethyl-phenyl)-piperazin-1-yl]-methanone]: 88%.

Another assay addresses T2, NA transporter (Rattus norvegicus, UniProt Q9WTR4).
T2 construct: from tissue; host or cells: rat brain (hypothalamus), synaptosomes, P2 fraction
Description: Noradrenalin (NA) uptake inhibition, synaptosomes from rat brain (hypothalamus). It is filed as biochemical. The text has this: b) Method for Determining Noradrenalin and 5-HT Uptake Inhibition:
Synaptosomes from rat brain regions are freshly isolated for in vitro studies, as described in the publication “The isolation of nerve endings from brain” by E. G. Gray and V. P. Whittaker, J. Anatomy 96, pages 79-88, 1962. The corresponding literature description is hereby introduced as a reference and is deemed to be part of the disclosure.
The tissue (hypothalamus for the determination of noradrenalin uptake inhibition and medulla and pons for the determination of 5-HT uptake inhibition) is homogenised in ice-cooled 0.32 M sucrose (100 mg of tissue/1 mL) in a glass homogeniser with Teflon pestle using five complete up and down strokes at 840 revolutions/minute.
The homogenate is centrifuged at 4° C. for 10 minutes at 1000 g. After subsequent centrifugation at 17000 g for 55 minutes, the synaptosomes (P2 fraction) are obtained, which are resuspended in 0.32 M […] (0.5 mL/100 mg of original weight).
The particular uptake is measured in a 96-well microtitre plate. The volume is 250 μL and the incubation proceeds at room temperature (approx. 20-25° C.) under an O2 atmosphere.
The incubation time is 7.5 minutes for [^3H]-NA and 5 minutes for [^3H]-5-HT. The 96 samples are then filtered through a Unifilter GF/B® microtitre plate (Packard) and washed with 200 mL of incubated buffer using a “Brabdel MPXRI-96T Cell-Harvester”. The Unifilter GF/B plate is dried for 1 hour at 55° C. The plate is then sealed with a Back Seal® (Packard) and 35 μL of scintillation fluid are added per well (Ultima Gold®, Packard). After sealing with a top Seal® (Packard) and establishing an equilibrium (around 5 hours), radioactivity is determined in a “Trilux 1450 Microbeta” (Wallac).
The quantity of protein used in the above determination corresponds to the values known from the literature, as for example described in “Protein measurement with the folin phenol reagent”, Lowry et al., J. Biol. Chem., 193, 265-275, 1951.
A detailed description of the method may additionally be found in the literature, for example in M. Ch. Frink, H.-H. Hennies, W. Engelberger, M. Haurand and B. Wilffert (1996) Arzneim.-Forsch./Drug Res. 46 (III), 11, 1029-1036.
The following characteristics were determined for the NA or 5-HT transporter: […]
For `COc1ccc(OCCNC(=O)c2noc3c2CN(S(=O)(=O)c2ccc(C)cc2)CC3)cc1` [Example 109, 5-(toluene-4-sulfonyl)-4,5,6,7-tetrahydro-isoxazolo[4,5-c]pyridine-3-carboxylic acid [2-(4-methoxy-phenoxy)-ethyl] amide], the inhibition at 10 µM worked out at 64%.
Turning to `O=C(NC1CCN(Cc2ccc(C(F)(F)F)cc2)C1)c1noc2c1CN(S(=O)(=O)c1ccc(F)cc1)CC2` (stereo not drawn) [Example 39, 5-(4-fluoro-benzenesulfonyl)-4,5,6,7-tetrahydro-isoxazolo[4,5-c]pyridine-3-carboxylic acid [1-(4-trifluoromethyl-benzyl)-pyrrolidin-3-yl]amide], the inhibition at 10 µM was 61%.
Still for that read-out and setting: the same measure for `O=C(NCc1cccs1)c1noc2c1CN(C(=O)c1ccco1)CC2` [Example 50, 5-(furan-2-carbonyl)-4,5,6,7-tetrahydro-isoxazolo[4,5-c]pyridine-3-carboxylic acid (thiophen-2-ylmethyl) amide]: 71%.
Still for that read-out and setting: the same measure for `CCOC(=O)CCNC(=O)c1noc2c1CN(C(=O)Cc1ccc3ccccc3c1)CC2` [Example 125, 3-{[5-(2-naphthalen-2-yl-acetyl)-4,5,6,7-tetrahydro-isoxazolo[4,5-c]pyridine-3-carbonyl]-amino}-propionic acid ethyl ester]: 63%; for `CC(CCc1ccccc1)NC(=O)c1noc2c1CN(S(=O)(=O)c1ccc(OC(F)(F)F)cc1)CC2` (stereo not drawn) [Example 96, 5-(4-trifluoromethoxy-benzenesulfonyl)-4,5,6,7-tetrahydro-isoxazolo[4,5-c]pyridine-3-carboxylic acid (1-methyl-3-phenyl-propyl) amide]: 63%; for `O=C(c1noc2c1CN(S(=O)(=O)c1cc(Cl)ccc1Cl)CC2)N1CCN(c2ccccc2Cl)CC1` [Example 110, [4-(2-chlorophenyl)-piperazin-1-yl]-[5-(2,5-dichloro-benzenesulfonyl)-4,5,6,7-tetrahydro-isoxazolo[4,5-c]pyridin-3-yl]-methanone]: 86%.
The molecule `O=C(NC1CCCC1OCc1ccccc1)c1noc2c1CN(S(=O)(=O)c1cc(Cl)ccc1Cl)CC2` (stereo not drawn) [Example 40, 5-(2,5-dichloro-benzenesulfonyl)-4,5,6,7-tetrahydro-isoxazolo[4,5-c]pyridine-3-carboxylic acid (2-benzyloxy-cyclopentyl) amide] came in with an inhibition at 10 µM of 71%.
On to `COc1ccc(CNC(=S)N2CCc3onc(C(=O)NC4CCCC4)c3C2)cc1` [Example 127, 5-(4-methoxy-benzylthiocarbamoyl)-4,5,6,7-tetrahydro-isoxazolo[4,5-c]pyridine-3-carboxylic acid cyclopentyl amide], for which testing at 10 µM gave an inhibition of 63%.
Still for that read-out and setting: the figure for `CCOC(=O)CCNC(=O)c1noc2c1CN(S(=O)(=O)c1ccc(Cl)cc1)CC2` [Example 121, 3-{[5-(4-chloro-benzenesulfonyl)-4,5,6,7-tetrahydro-isoxazolo[4,5-c]pyridine-3-carbonyl]-amino}-propionic acid ethyl ester] is 61%; for `CC12CCC(C(=O)N3CCc4onc(C(=O)NCCN5CCCC5)c4C3)(OC1=O)C2(C)C` (stereo not drawn) [Example 51, 5-(4,7,7-trimethyl-3-oxo-2-oxa-bicyclo[2.2.1]heptane-1-carbonyl)-4,5,6,7-tetrahydro-isoxazolo[4,5-c]pyridine-3-carboxylic acid (2-pyrrolidin-1-yl-ethyl) amide] it is 73%; for `CC(CCc1ccccc1)NC(=O)c1noc2c1CN(S(=O)(=O)c1ccc(F)cc1)CC2` (stereo not drawn) [Example 38, 5-(4-fluoro-benzenesulfonyl)-4,5,6,7-tetrahydro-isoxazolo[4,5-c]pyridine-3-carboxylic acid (1-methyl-3-phenyl-propyl) amide] it is 66%.
On the same count and under the same terms, the same measure for `O=C(NCCc1ccccc1)c1noc2c1CN(C(=O)c1ccc(F)c(Cl)c1)CC2` [Example 105, 5-(3-chloro-4-fluoro-benzoyl)-4,5,6,7-tetrahydro-isoxazolo[4,5-c]pyridine-3-carboxylic acid phenethyl amide]: 62%; for `Cc1ccc(S(=O)(=O)N2CCc3onc(C(=O)NC(C)C(=O)OC(C)(C)C)c3C2)cc1` (stereo not drawn) [Example 120, 2-{[5-(toluene-4-sulfonyl)-4,5,6,7-tetrahydro-isoxazolo[4,5-c]pyridine-3-carbonyl]-amino}-propionic acid tert-butyl ester]: 62%; for `COCCNC(=S)N1CCc2onc(C(=O)NCCc3ccccc3)c2C1` [Example 130, 5-(2-methoxy-ethylthiocarbamoyl)-4,5,6,7-tetrahydro-isoxazolo[4,5-c]pyridine-3-carboxylic acid phenethyl amide]: 67%.
The same measure, in the same setting: the same measure for `CN(C)S(=O)(=O)N1CCc2onc(C(=O)N3CCOCC3)c2C1` [Example 49, 3-(morpholine-4-carbonyl)-6,7-dihydro-4H-isoxazolo[4,5-c]pyridine-5-sulfonic acid dimethyl amide]: 73%; for `CCC(C)(CC(=O)O)CC(=O)N1CCc2onc(C(=O)Nc3ccccc3)c2C1` (stereo not drawn) [Example 29, 3-ethyl-3-methyl-5-oxo-5-(3-phenylcarbamoyl-6,7-dihydro-4H-isoxazolo[4,5-c]pyridin-5-yl)-pentanoic acid]: 44%; for `O=C(Nc1ccccc1)c1noc2c1CN(Cc1ccc3ccccc3c1Br)CC2` [Example 135, 5-(1-bromo-naphthalen-2-ylmethyl)-4,5,6,7-tetrahydro-isoxazolo[4,5-c]pyridine-3-carboxylic acid phenyl amide]: 60%.
